Experimental data taken from PubChem BioAssay AID651974 (The Scripps Research Institute Molecular Screening Center, 2013).
Activity calls are given as the source filed them. How the calls were made is not given here.

Test: compounds lowering VP16-driven luciferase output – cell-based, luminescence, dose response, counter-screen for LRH-1 inverse agonist project, late-stage follow-up (AID 651974)
Details: HEK293 cells transfected with Gal4-VP16 and pGL4.31 luciferase reporter

**Q.** For `O=C(CSc1nc(=O)n2cc(Cl)ccc2n1)Nc1ccc2c(c1)OCCO2`, which IC50 is on record?
**A.** Its IC50 is > 35.9 µM (inactive).

**Q.** Which IC50 does the source give for `NC(=O)C1CCN(C(=O)COc2ccc3c4c(c(=O)oc3c2)CCCC4)CC1` here?
**A.** The IC50 was > 35.9 µM (inactive).

**Q.** Which IC50 does the source give for `Cc1cc(Br)ccc1NC(=O)CSc1nnc(CN2CCOCC2)n1C` here?
**A.** Its IC50 is > 35.9 µM (inactive).

**Q.** For `CC(C)CC1(C)NC(=O)N(CC(=O)Nc2ccc3c(c2)OCCO3)C1=O` (centres undefined), which IC50 is on record?
**A.** Its IC50 is > 35.9 µM (inactive).
